Experimental data as given in patent US7338799B2 (Vanderbilt University, priority 2001, dated 2008).
Read-outs that look alike come from different tables or passages of the source.

What was measured:
[1] = target: T1, hCHT (Homo sapiens, UniProt Q9GZV3); assay: [3H]HC-3 radioligand binding in membrane fractions of hCHT transfected COS-7 cells; details: for Ki: 10 nM [3H]HC-3, hCHT transfected COS-7 cell membranes, read-out: Ki in inhibiting [3H]HC-3 binding
T1 construct: The hCHT cDNA encodes a protein of 580 amino acids; expressed in transfected cells; host or cells: COS-7 (transient, FuGene 6, pcDNA3)
T1 sequence (Q9GZV3 1-580): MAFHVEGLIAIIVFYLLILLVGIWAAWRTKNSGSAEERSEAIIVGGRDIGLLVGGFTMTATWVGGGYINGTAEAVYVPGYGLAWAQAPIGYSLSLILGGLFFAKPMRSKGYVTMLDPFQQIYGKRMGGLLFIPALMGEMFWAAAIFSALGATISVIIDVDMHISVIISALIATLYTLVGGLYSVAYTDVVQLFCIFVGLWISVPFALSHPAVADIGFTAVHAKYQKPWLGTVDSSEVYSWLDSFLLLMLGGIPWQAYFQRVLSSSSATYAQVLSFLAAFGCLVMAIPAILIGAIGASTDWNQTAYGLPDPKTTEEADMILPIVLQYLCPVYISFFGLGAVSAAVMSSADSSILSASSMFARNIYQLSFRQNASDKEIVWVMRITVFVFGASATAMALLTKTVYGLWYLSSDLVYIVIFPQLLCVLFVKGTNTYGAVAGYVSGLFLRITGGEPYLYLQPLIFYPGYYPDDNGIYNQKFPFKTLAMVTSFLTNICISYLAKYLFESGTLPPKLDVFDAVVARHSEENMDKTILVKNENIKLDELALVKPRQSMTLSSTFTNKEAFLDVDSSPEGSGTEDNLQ
Method: COS-7 cells were transfected with a pcDNA3 vector containing hCHT cDNA using the FuGene 6 transfection reagent (Roche Diagnostics) following the manufacturer's protocols. Briefly, COS-7 cells were cultured in Dulbecco's modified Eagles' medium (DMEM) supplemented with 10% fetal bovine serum (Hyclone), 100 μg/ml of penicillin and streptomycin at a density of 3-4 million cells in 150 mm culture dishes or 5×10^4 cells per well in 24 well dishes (Falcon). After 24 hr, cells were transfected and 48 hr later, the cells were harvested and processed for membrane binding and whole cell or vesicle transport assays.
Monolayers of hCHT transfected COS-7 cells were washed with 30 ml of HTE buffer and harvested in 10 ml of homogenization buffer (0.32 M sucrose in HTE buffer). Cells were homogenized at 20,000 rpm for 25 sec using a Polytron tissue homogenizer (Brinkman). The homogenate was centrifuged at 100,000×g for 45 min at 4° C. The resulting pellet was suspended in 2 ml of HTE buffer, assayed for protein content (Bradford method; BioRad) and 50 μg of the membrane suspension (1 μg/μl) was transferred to each tube in triplicate. Unless otherwise indicated, all binding assays were performed in the presence of 150 mM NaCl in HTE buffer. Assays were initiated by the addition of [^3H]HC-3 (127 Ci per mmol; NEN Life Science Products, 10 nM final concentration). After a 1 hr incubation at room temperature, membranes were rapidly filtered through glass fiber GF/B filters (Brandel) soaked in 0.3% polyethylenimine (Sigma) in HTE buffer and accumulated radioactivity was quantified using liquid scintillation spectrometry (Packard). To test the ion dependence of hCHT binding activity, Na^+ was replaced in the assay buffer with equimolar concentrations of Li^+ whereas Cl^− was replaced with equimolar concentrations of isethionate. Non-specific binding was quantified by measuring [^3H] […] Data for binding and transport assays (see below) were analyzed using nonlinear least squares curve fitting and Scatchard transformations (Kaleidagraph, Abelbeck).

[2] = target: T2, mCHT (Mus musculus, UniProt Q8BGY9, Q119K/Q86H); assay: [3H]HC-3 binding in membrane fractions of mCHT transfected COS-7 cells; details: for Ki: mCHT transfected COS-7 cell membrane, read-out: Ki in inhibiting [3H]HC-3 binding
T2 construct: expressed in transfected cells; host or cells: COS-7 (transient, pcDNA3)
T2 sequence (Q8BGY9 with tags, fused parts or gaps Q86H/Q119K): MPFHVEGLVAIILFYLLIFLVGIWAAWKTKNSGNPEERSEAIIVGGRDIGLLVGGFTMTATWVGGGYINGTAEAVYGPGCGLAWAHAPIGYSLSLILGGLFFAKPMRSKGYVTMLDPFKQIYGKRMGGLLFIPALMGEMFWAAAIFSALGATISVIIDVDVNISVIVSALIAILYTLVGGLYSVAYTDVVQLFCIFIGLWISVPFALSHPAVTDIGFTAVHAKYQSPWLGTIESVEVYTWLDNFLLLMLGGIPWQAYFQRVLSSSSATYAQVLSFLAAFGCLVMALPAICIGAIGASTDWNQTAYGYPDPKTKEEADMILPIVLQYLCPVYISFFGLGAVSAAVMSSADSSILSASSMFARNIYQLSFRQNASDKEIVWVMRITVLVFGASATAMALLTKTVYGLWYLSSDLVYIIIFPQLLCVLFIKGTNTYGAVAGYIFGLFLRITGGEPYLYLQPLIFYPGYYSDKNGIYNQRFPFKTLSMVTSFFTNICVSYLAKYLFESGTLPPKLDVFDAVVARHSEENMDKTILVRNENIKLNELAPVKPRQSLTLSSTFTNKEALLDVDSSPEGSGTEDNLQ

[3] = target: T1, hCHT; assay: [3H]choline transport in resealed membrane vesicles from hCHT transfected COS-7 cells; type: biochemical
Method: To assay CHT activity in resealed membrane vesicles from hCHT-transfected mammalian cells, the inventors transiently transfected COS-7 cells with hCHT as described herein above and prepared membrane fractions as described for binding assays. After obtaining the membrane fractions, resealed membrane vesicles were prepared as described by Fisher et al., 1992 (Fishe et al., 1992) with slight modifications. The membrane pellets were resuspended in 2 ml of HTE buffer (˜2 μg/μl) and the suspension was rotated gently at 4° C. for 45 min. Membrane vesicle suspensions were centrifuged (27,000×g) for 20 min at 4° C. and the resulting pellet suspended in 2 ml of Na^+ and Cl^− free HTE buffer. Protein content of the suspension was determined (Bradford; BioRad) and 50 μg of the vesicle suspension (1 μg/μl) was transferred to each tube for triplicate assays. […] After a 5 min incubation at room temperature, vesicles were rapidly filtered through Whatman GF/B filters soaked in 0.3% polyethylenimine in HTE buffer and the accumulated radioactivity quantified as described for binding assays. […] In all experiments, non-specific uptake was quantified by determining uptake in the presence of 1 μM HC-3 and subtracted from the total uptake to yield specific transport.

[4] = target: T2, mCHT; assay: choline uptake in resealed membrane vesicles from mCHT transfected COS-7 cells; type: biochemical; details: for IC50: resealed membrane vesicles, mCHT
[5] = substrate: C[N+](C)(C)CCO; assay: cells, lysate or membranes named

CC(=O)OCC[N+](C)(C)C [ACh, acetylcholine]
Ki ([1]; ACh in the presence of 10 μM physostigmine): 433000 nM | Ki ([2]; ACh in the presence of physostigmine): 433000 nM | Ki [3]: 570 nM

C[N+]1(C)CCOC(O)(c2ccc(-c3ccc(C4(O)C[N+](C)(C)CCO4)cc3)cc2)C1.[Br-].[Br-] (stereo not drawn) [HC-3, hemicholinium-3]
Ki [1]: 4 nM | Hill coefficient of [3H]HC-3 binding ([1]; single site kinetics): 0.99 | Kd ([2]; Scatchard transformation, mCHT expressing membranes, read-out: equilibrium dissociation constant (Kd) of [3H]HC-3 binding): 5 nM | Ki [2]: 5 nM | effect on choline uptake ([4]; 1 μM HC-3, mCHT vesicles against vector transfected): reduced choline uptake to levels seen in vector transfected COS-7 membrane vesicles | IC50 ([4]; read-out: IC50 for inhibition of mCHT-mediated choline uptake): 5 nM | effect of addition of HC-3 on [3H]choline uptake ([3]; hCHT vesicles against vector transfected controls, data not shown): reduced [^3H]choline uptake to levels seen in vector transfected COS-7 membrane vesicles | Ki ([3]; read-out: Ki for inhibition of [3H]choline uptake, resealed membrane vesicles, hCHT, 20 nM [3H]choline): 5 nM

C[N+](C)(C)CCO [choline]
IC50 [4]: 123 nM | Ki [3]: 123 nM

B1: mCHT (Mus musculus; Q119K/Q86H) (protein)
chain: MPFHVEGLVAIILFYLLIFLVGIWAAWKTKNSGNPEERSEAIIVGGRDIGLLVGGFTMTATWVGGGYINGTAEAVYGPGCGLAWAHAPIGYSLSLILGGLFFAKPMRSKGYVTMLDPFKQIYGKRMGGLLFIPALMGEMFWAAAIFSALGATISVIIDVDVNISVIVSALIAILYTLVGGLYSVAYTDVVQLFCIFIGLWISVPFALSHPAVTDIGFTAVHAKYQSPWLGTIESVEVYTWLDNFLLLMLGGIPWQAYFQRVLSSSSATYAQVLSFLAAFGCLVMALPAICIGAIGASTDWNQTAYGYPDPKTKEEADMILPIVLQYLCPVYISFFGLGAVSAAVMSSADSSILSASSMFARNIYQLSFRQNASDKEIVWVMRITVLVFGASATAMALLTKTVYGLWYLSSDLVYIIIFPQLLCVLFIKGTNTYGAVAGYIFGLFLRITGGEPYLYLQPLIFYPGYYSDKNGIYNQRFPFKTLSMVTSFFTNICVSYLAKYLFESGTLPPKLDVFDAVVARHSEENMDKTILVRNENIKLNELAPVKPRQSLTLSSTFTNKEALLDVDSSPEGSGTEDNLQ
Km ([5]; other: Eadie-Hofstee plot, single site, mCHT vesicles): 2 µM

B2: hCHT (Homo sapiens) (protein)
chain: MAFHVEGLIAIIVFYLLILLVGIWAAWRTKNSGSAEERSEAIIVGGRDIGLLVGGFTMTATWVGGGYINGTAEAVYVPGYGLAWAQAPIGYSLSLILGGLFFAKPMRSKGYVTMLDPFQQIYGKRMGGLLFIPALMGEMFWAAAIFSALGATISVIIDVDMHISVIISALIATLYTLVGGLYSVAYTDVVQLFCIFVGLWISVPFALSHPAVADIGFTAVHAKYQKPWLGTVDSSEVYSWLDSFLLLMLGGIPWQAYFQRVLSSSSATYAQVLSFLAAFGCLVMAIPAILIGAIGASTDWNQTAYGLPDPKTTEEADMILPIVLQYLCPVYISFFGLGAVSAAVMSSADSSILSASSMFARNIYQLSFRQNASDKEIVWVMRITVFVFGASATAMALLTKTVYGLWYLSSDLVYIVIFPQLLCVLFVKGTNTYGAVAGYVSGLFLRITGGEPYLYLQPLIFYPGYYPDDNGIYNQKFPFKTLAMVTSFLTNICISYLAKYLFESGTLPPKLDVFDAVVARHSEENMDKTILVKNENIKLDELALVKPRQSMTLSSTFTNKEAFLDVDSSPEGSGTEDNLQ
Km ([5]; other: resealed membrane vesicles, hCHT): 1.6 µM
